Read-outs that look alike come from different tables or passages of the source.
Key:
hepatitis B = conditions: cited from earlier work
hepatitis C = conditions: six months after termination of treatment; cited from earlier work
hepatitis D = conditions: cited from earlier work
CT26 cells = experiment: Effect of ganciclovir on unmodified CT26 cells, cell counts; format: cell-based, mouse
Text: (§1) One plate of each cell type was left untreated.

CT26 beta-gal cells = experiment: Effect of ganciclovir on CT26 beta-gal cells, cell counts; format: cell-based, mouse
Text: as §1

CT26TK Neo [1] = experiment: Ganciclovir dose study in mice injected with CT26TK Neo cells (tumor regression); format: in vivo
Protocol: In order to test whether in vivo transduction of a murine tumor could be used to treat the disease, an experiment was performed to determine the optimal concentration of ganciclovir necessary to eliminate a tumor that was transduced and selected in vitro to assure 100% transduction. Twelve groups of 3 mice each are injected with 2×10^5 CT26TK Neo cells. Six groups of mice are injected with these cells intraperitoneally (I.P.) and six groups of mice are injected subcutaneously (S.C.). Two other groups of 3 mice each are injected with 2×10^5 unmodified CT26 cells (as a control) either I.P. or S.C.
Ten days after the injection of the CT26 or CT26TK Neo cells into these groups of mice, several concentrations of ganciclovir treatment are initiated. Each dose regimen consists of 2 daily AM and PM I.P. injections of ganciclovir.
Tumor measurements were made for 23 days FIG. 11). CT26TK Neo grew only slightly slower than unmodified CT26 in the absence of ganciclovir. […] After 24 days, the I.P. injected animals were sacrificed and evaluated. The optimal concentration for anti-tumor effect was similar whether the tumor was grown I.P. or S.C.

[2] = Ganciclovir toxicity in the mouse dose study; format: in vivo, mice
CT26 = experiment: Ganciclovir on in vivo tumor growth of unmodified CT26; parameters: species or system mice; conditions: 62.5 mg/Kg I.P. twice daily, S.C. tumor
Protocol: (§2) In order to determine whether ganciclovir has an effect on the growth of unmodified CT26 tumor cells in vivo, 2 groups of 7 mice are injected S.C. with 2×10^5 unmodified CT26 cells and 2 groups of 7 mice are injected S.C. with 2×10^5 CT26TK Neo cells. Seven days after tumor implantation, one group of CT26 injected mice and one group of CT26TK Neo injected mice are placed on a twice daily (AM and PM) regimen of I.P. ganciclovir at 62.5 mg/Kg. These mice are treated for 12 days or until the CT26TK Neo injected animals have no detectable tumor burden. Tumor growth is monitored over a three week period.

CT26TK Neo [3] = experiment: Ganciclovir on in vivo tumor growth of CT26TK Neo; parameters: species or system mice; conditions: 62.5 mg/Kg I.P. twice daily, S.C. tumor
Protocol: as §2

CT26TK Neo cells = experiment: Effect of ganciclovir on CT26TK Neo cells (TK-3 transduced), cell counts; conditions: lowest dose 6.25 μg/ml, twice per day for four consecutive days
Protocol: CT26 cells are transduced with G-pseudotyped TK-3 vector. Twenty-four hours after adding the viral supernatant, the CT26 cells are placed under G-418 selection (450 µg/ml). After 10 days incubation, a G-418 selected pool is obtained and designated CT26TK Neo. CM26 TK Neo cells were seeded into six 10 cm^2 plates at a density of 2.5×10^6 per plate. As controls, each of two other cell types, CT26 and CT26 beta-gal (this cell line was transduced with a retroviral vector carrying the reporter gene β-galactosidase from E. coli.), were also seeded into six 10 cm^2 plates as controls. Five plates of each cell type were treated twice per day for four consecutive days with medium containing ganciclovir concentrations of 100 μg/ml, 50 μg/ml, 25 μg/ml, 12.5 μg/ml and 6.25 μg/ml. One plate of each cell type was left untreated. Afterwards, the cells were removed from each dish using trypsin-EDTA, resuspended in DMEM with 10% FBS and counted.

liver = experiment: Peroxisome proliferator induced liver transduction by beta galactosidase vector, XGAL staining; format: in vivo, Balb/C mice
Protocol: On day 4, 200 ul beta galactosidase retroviral vector (1E9 cfu/ml, DA-Bengal) was injected via tail vein. On day 7, the mice were sacrificed, tissues were fixed in 2% formaldehyde/PBS for 24 hr, and blocked into slices of 2-5 mm. Sections were rinsed in PBS and stained in fresh XGAL solution (5 mM potassium ferricyanide/5 mM potassium ferrocyanide/2 mM MgCl2/0.5mg/ml XGAL in DMF (Gold Scientific)/1×PBS). Tissue was embedded in paraffin (−50 degrees), sectioned at 5 microns (PML, San Diego), and counterstained with Hematoxylin/Eosin.

[4] = 6.25 μg/ml or 12.5 μg/ml, twice per day for four days

Q: What does the source list for alpha interferon?
A: patients responding to treatment (hepatitis B; patients infected as adults): about 35%; patients responding to treatment (hepatitis B; perinatal infectees): about 10%; responders relapsed (hepatitis C): half; responders relapsed (hepatitis D; in vivo): 85-90%; patients responding to therapy (hepatitis D; pilot studies): 25-60%

Q: With `Nc1nc(O)c2ncn(COC(CO)CO)c2n1` [ganciclovir] as the compound, how does the “effect on cell growth” value (CT26 cells; [4]) read?
A: Its value is “did not have an effect”.

Q: What about the “effect on cell growth” value (CT26 cells; beginning at 25 ug/ml) of the same compound?
A: The value was “dose-dependent decrease in cell growth”.

Q: What about the “effect on cell growth” value (CT26 beta-gal cells; [4]) of the same compound?
A: Its value is “did not have an effect”.

Q: What about the “effect on cell growth” value (CT26 beta-gal cells; beginning at 25 ug/ml) of the same compound?
A: The value was “dose-dependent decrease in cell growth”.

Q: What about the tumor regression (CT26TK Neo [1]; 15.63 mg/Kg, compared to untreated control groups) of the same compound?
A: Its tumor regression is “Little or no effect”.

Q: And the tumor regression (CT26TK Neo [1]; 31.25 mg/Kg)?
A: Its tumor regression is “Partial tumor regression”.

Q: What about the tumor regression (CT26TK Neo [1]; 62.5 mg/Kg regimen, 2 daily I.P. injections) of the same compound?
A: The tumor regression was “Complete tumor regression”.

Q: What about the tolerability ([2]; 15.63 mg/Kg, 31.25 mg/Kg and 62.5 mg/Kg groups, treated for an additional 7 days) of the same compound?
A: Its tolerability is “able to tolerate the treatment”.

Q: And the toxicity observed ([2]; 62.5 mg/Kg groups)?
A: Its toxicity observed is “not life threatening and reversible”.

Q: What about the “survival (toxic effects)” value ([2]; 125 mg/Kg, 250 mg/Kg and 500 mg/Kg groups, 2 daily I.P. injections, after 5 days) of the same compound?
A: The value was “dead due to the toxic effects”.

Q: What about the “tumor size versus untreated mice” value (CT26) of the same compound?
A: The value was “somewhat smaller”.

Q: What about the tumor burden (CT26TK Neo [3]) of the same compound?
A: The tumor burden was “dramatic decrease in tumor burden”.

Q: And the “cytotoxic effect on CT26 TKneo cells” value (CT26TK Neo cells)?
A: Its value is “dramatic cytotoxic effect”.

Q: What does the source list for `Cc1cccc(Nc2cc(Cl)nc(SCC(=O)O)n2)c1C` [WY 14643]?
A: blue cells in liver (background staining) (liver; WY liver: mitogen, no vector): No blue cells; blue cells in liver, periportally and on the periphery (liver; group I: IP 500 μl of 15 mg/ml once per day for 4 days plus beta galactosidase vector): Numerous blue cells; blue cells in liver, periportally and on the periphery (liver; group II: gavage 200 μl of 15 mg/ml once per day for 4 days plus beta galactosidase vector): Numerous blue cells

Reference: patent US6818439B1, “Methods for administration of recombinant gene delivery vehicles for treatment of hemophilia and other disorders” (priority 1994, dated 2004)
